Measured values from US4192871A, “Chemical compounds” (Glaxo Laboratories Limited, priority 1976, dated 1980).
Structures can show the parent of a compound that is named as a salt.

Legend:
pH of the salt solutions = type: physicochemical
Method in brief: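 Aminoester free base mixed with 1 molar part acid in water, stirred or shaken, with extra acid or ethanol evaporation in some methods, then made up with water to set weight. Undissolved base collected and weighed to calculate dissolved base; solution membrane-filtered and pH measured.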

[1] = dissolution of the 11β-aminoester salts in aqueous acid (Table 5 and Examples 101, 225-229); type: physicochemical; conditions: for concentration of aqueous solution of the citrate: citric acid monohydrate in water, filtered solution
Method in brief: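 11β-Aminoester free base combined with 1 molar part of acid (citric acid as monohydrate) in water, with extra acid or prior ethanol co-evaporation in some methods. Solution made up to set weight, undissolved base collected and weighed to calculate dissolved amount. Solution pH measured.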

[2] = aqueous solution of the salt, Table 5
[3] = method D: 1 molar part acid, undissolved material weighed, WT. of solution 10 g, except Ex. 136: 8.95, 140: 9.52, 165 and 167: 10.1, 190 and 198: 9.8, 191: 8.9, 194: 6.6, 204: 10.09, 219: 10.6 g
[4] = method A: clear solution, 1 molar part acid, made up with water to WT. of solution 10 g, except Ex. 121 and 150: 12, 123: 12.3, 124: 7.5, 129: 10.3, 135 and 139: 8.95, 164: 10.35, 170: 10.4, 181: 10.04, 187: 9.5, 210: 10.2, 221: 15 g
[5] = aqueous solution of the citrate, filtered, 9.5-10 mg/ml
[6] = method B: further acid added, undissolved material weighed, WT. of solution 10 g, except Ex. 130 and 141: 9.2, 142: 9.23, 143, 144, 189 and 199: 9.8, 149: 10.6, 153: 7.9, 162 and 188: 9.5, 163: 68, 166: 10.4, 168: 10.7, 169: 10.9, 183: 8.05, 184 and 201: 9.83, 185: 7.1, 186: 9.3, 192: 10.07, 193: 6.4, 195: 6.8, 196: 7, 197: 7.2, 200: 10.1, 206: 15 g
[7] = method C: ethanol evaporated, residue in water, undissolved material weighed, WT. of solution Ex. 118: 10, 120: 10.4, 148: 9.54, 152: 5.6, 154: 9.1, 155: 8.77, 156: 9.06, 157: 9.5, 158: 9.38, 159: 9.17, 179: 9.65, 180: 11.7, 182: 4.9, 202: 12.05, 213: 12, 214: 11.5, 215: 11.1, 216: 11.6, 217: 12.1 g

CCCN(CCC)CC(=O)O[C@H]1C[C@]2(C)[C@@H](C(=O)COC(C)=O)CC[C@H]2[C@@H]2CC[C@H]3C[C@H](O)CC[C@]3(C)[C@H]21 [Example 209]
pH (pH of the salt solutions; [2]): 3.2 | Dissolved aminoester [1, 3]: 75 mg

CCCCN(CC)CC(=O)O[C@H]1C[C@]2(C)[C@@H](C(C)=O)CC[C@H]2[C@@H]2CC[C@H]3C[C@H](O)[C@@H](OCC)C[C@]3(C)[C@H]21 [Example 150]
pH (pH of the salt solutions; [2]): 3.35 | Dissolved aminoester [1, 4]: 120 mg

CCO[C@H]1C[C@@]2(C)[C@@H](CC[C@@H]3[C@@H]2[C@@H](OC(=O)CN(CC)CC)C[C@]2(C)[C@@H](C(C)=O)CCC[C@@H]32)C[C@@H]1O [Example 225 citrate salt]
pH (pH of the salt solutions; [5]): 3.66 | concentration of aqueous solution of the citrate [1]: 9750 µg/mL

CC(=O)[C@H]1CC[C@H]2[C@@H]3CC[C@H]4C[C@H](O)[C@@H](Cl)C[C@]4(C)[C@H]3[C@@H](OC(=O)CN3CCC(C)CC3)C[C@]12C [Example 203]
pH (pH of the salt solutions; [2]): 2.85 | Dissolved aminoester ([1]; method E: as C with further acid, WT. of solution Ex. 160: 6.12, 161: 7.8, 203: 12.7, 212: 12.125, 220: 10 g): 127 mg

CCCC(C)NCC(=O)O[C@H]1C[C@]2(C)[C@@H](C(C)=O)CC[C@H]2[C@@H]2CC[C@H]3C[C@H](O)CC[C@]3(C)[C@H]21 (stereo partly drawn) [Example 141]
pH (pH of the salt solutions; [2]): 2.89 | Dissolved aminoester [1, 6]: 77.3 mg

CCCCN(C)CC(=O)O[C@H]1C[C@]2(C)[C@@H](C#N)CC[C@H]2[C@@H]2CC[C@H]3C[C@H](O)CC[C@]3(C)[C@H]21 [Example 205]
pH (pH of the salt solutions; [2]): 3.4 | Dissolved aminoester [1, 3]: 97 mg

CC(=O)[C@H]1CC[C@H]2[C@@H]3CC[C@H]4C[C@H](O)CC[C@]4(C)[C@H]3[C@@H](OC(=O)CNCC(C)C)C[C@]12C [Example 135]
pH (pH of the salt solutions; [2]): 3.27 | Dissolved aminoester [1, 4]: 80.5 mg

CC(=O)[C@H]1CC[C@H]2[C@@H]3CC[C@H]4C[C@H](O)CC[C@]4(C)[C@H]3[C@@H](OC(=O)CN3CCCCC3)C[C@]12C [Example 156]
pH (pH of the salt solutions; [2]): 3.52 | Dissolved aminoester [1, 7]: 90.3 mg

CC(=O)[C@H]1CC[C@H]2[C@@H]3CC[C@H]4C[C@H](O)CC[C@]4(C)[C@H]3[C@@H](OC(=O)CNC(C)CC(C)C)C[C@]12C (stereo partly drawn) [Example 140]
pH (pH of the salt solutions; [2]): 3.59 | Dissolved aminoester [1, 3]: 80.7 mg

CCCCN(C)CC(=O)OC1CC2(C)C(C(C)=O)CCC2C2CCC3CC(O)C(OC(C)=O)CC3(C)C12 (stereo not drawn) [Example 170]
pH (pH of the salt solutions; [2]): 3.7 | Dissolved aminoester [1, 4]: 104 mg

CC(=O)[C@H]1CC[C@H]2[C@@H]3CC[C@H]4C[C@H](O)CC[C@]4(C)[C@H]3[C@@H](OC(=O)CNC3CCCCC3)C[C@]12C [Example 138]
pH (pH of the salt solutions; [2]): 3.10 | Dissolved aminoester [1, 4]: 100 mg

CCC(C)NCC(=O)O[C@H]1C[C@]2(C)[C@@H](C(C)=O)CC[C@H]2[C@@H]2CC[C@H]3C[C@H](O)CC[C@]3(C)[C@H]21 (stereo partly drawn) [Example 139]
pH (pH of the salt solutions; [2]): 3.76 | Dissolved aminoester [1, 4]: 89.5 mg

CC(=O)[C@H]1CC[C@H]2[C@@H]3CC[C@H]4C[C@H](O)CC[C@]4(C)[C@H]3[C@@H](OC(=O)CN(C)C(C)CCC(C)C)C[C@]12C (stereo partly drawn) [Example 192]
pH (pH of the salt solutions; [2]): 3.00 | Dissolved aminoester [1, 6]: 100.7 mg

CCCN(CCC)CC(=O)O[C@H]1C[C@]2(C)[C@@H](C(C)=O)CC[C@H]2[C@@H]2CC[C@H]3C[C@H](O)CC[C@@H]3[C@H]21 [Example 227 citrate salt]
pH (pH of the salt solutions; [5]): 3.0 | concentration of aqueous solution of the citrate [1]: 10000 µg/mL

CC(=O)[C@H]1CC[C@H]2[C@@H]3CC[C@H]4C[C@H](O)CC[C@]4(C)[C@H]3[C@@H](OC(=O)CN(C)C(C)CC(C)C)C[C@]12C (stereo partly drawn) [Example 190]
pH (pH of the salt solutions; [2]): 3.43 | Dissolved aminoester [1, 3]: 86 mg

CC(=O)[C@H]1CC[C@H]2[C@@H]3CC[C@H]4C[C@H](O)CC[C@]4(C)[C@H]3[C@@H](OC(=O)CNC3CC3)C[C@]12C [Example 145]
pH (pH of the salt solutions; [2]): 2.93 | Dissolved aminoester [1, 3]: 93 mg

CCCCN(CC)CC(=O)O[C@H]1C[C@]2(C)[C@@H](C(C)=O)CC[C@H]2[C@@H]2CC[C@H]3C[C@H](O)CC[C@]3(C)[C@H]21 [Example 221]
pH (pH of the salt solutions; [2]): 3.52 | Dissolved aminoester [1, 4]: 150 mg

CCCO[C@H]1C[C@@]2(C)[C@@H](CC[C@@H]3[C@@H]2[C@@H](OC(=O)CN2CCC(C)CC2)C[C@]2(C)[C@@H](C(C)=O)CC[C@@H]32)C[C@@H]1O [Example 149]
pH (pH of the salt solutions; [2]): 2.9 | Dissolved aminoester [1, 6]: 106 mg

CC(=O)[C@H]1CC[C@H]2[C@@H]3CC[C@H]4C[C@H](O)CC[C@]4(C)[C@H]3[C@@H](OC(=O)CNC3CCCC3)C[C@]12C [Example 137]
pH (pH of the salt solutions; [2]): 3.62 | Dissolved aminoester [1, 4]: 100 mg

CC(=O)[C@H]1CC[C@H]2[C@@H]3CC[C@H]4C[C@H](O)CC[C@]4(C)[C@H]3[C@@H](OC(=O)CN3CCCC3)C[C@]12C [Example 155]
pH (pH of the salt solutions; [2]): 3.45 | Dissolved aminoester [1, 7]: 87.7 mg

COC(=O)[C@H]1CC[C@H]2[C@@H]3CC[C@H]4C[C@H](O)CC[C@]4(C)[C@H]3[C@@H](OC(=O)CN3CCCCC3)C[C@]12C [Example 125]
pH (pH of the salt solutions; [2]): 2.82 | Dissolved aminoester [1, 6]: 98 mg

CCCN(CCC)CC(=O)O[C@H]1C[C@]2(C)[C@@H](C(C)=O)CC[C@H]2[C@@H]2CC[C@H]3C[C@H](O)CC[C@]3(C)[C@H]21 [Example 219]
pH (pH of the salt solutions; [2]): 3.77 | Dissolved aminoester [1, 3]: 106 mg

CCO[C@H]1C[C@@]2(C)[C@@H](CC[C@@H]3[C@@H]2[C@@H](OC(=O)CN(CC)CC)C[C@]2(C)[C@@H](C(C)=O)CC[C@@H]32)C[C@@H]1O.O=C(O)CC(O)(CC(=O)O)C(=O)O [Example 101 citrate salt, 11β-N,N-Diethylaminoacetoxy-2β-ethoxy-3α-hydroxy-5α-pregnan-20-one, citrate salt]
pH (pH of the salt solutions; solution in 0.9% w/v saline, pH adjusted with sodium hydroxide solution): 4.52 | pH (pH of the salt solutions; solution of the salt in saline, before any adjustment, citrate salt): 3.5 | pH (pH of the salt solutions; solution of the salt in saline, before any adjustment, listed as Example 223, citrate salt): 3.63 | dissolution in saline ([1]; citrate salt froth, in saline): dissolved readily in saline

CCCN(CCC)CC(=O)O[C@H]1C[C@]2(C)[C@@H](C(C)=O)CC[C@H]2[C@@H]2CC[C@H]3C[C@](C)(O)CC[C@]3(C)[C@H]21 [Example 132]
pH (pH of the salt solutions; [2]): 3.4 | Dissolved aminoester [1, 4]: 100 mg

CCN(CC)CC(=O)O[C@H]1C[C@]2(C)[C@@H](C(C)=O)CC[C@H]2[C@@H]2CC[C@H]3C[C@H](O)[C@@H](OC)C[C@]3(C)[C@H]21 [Example 124]
pH (pH of the salt solutions; [2]): 3.65 | Dissolved aminoester [1, 4]: 75 mg

CCCN(CCC)CC(=O)O[C@H]1C[C@]2(C)[C@@H](C(C)=O)CC[C@H]2[C@@H]2CC[C@H]3C[C@H](O)CC[C@]3(C)[C@H]21 [Example 154]
pH (pH of the salt solutions; [2]): 3.5 | Dissolved aminoester [1, 7]: 91 mg

CCCN(CCC)CC(=O)O[C@H]1C[C@]2(C)[C@@H](C(C)=O)CC[C@H]2[C@@H]2CC[C@H]3C[C@H](O)CC[C@]3(C)[C@H]21 [Example 216]
pH (pH of the salt solutions; [2]): 3.58 | Dissolved aminoester [1, 7]: 116 mg

CC(=O)[C@H]1CC[C@H]2[C@@H]3CC[C@H]4C[C@H](O)CC[C@]4(C)[C@H]3[C@@H](OC(=O)CCCN3CCC(C)CC3)C[C@]12C [Example 181]
pH (pH of the salt solutions; [2]): 3.72 | Dissolved aminoester [1, 4]: 101 mg

CCCCCNCC(=O)O[C@H]1C[C@]2(C)[C@@H](C(C)=O)CC[C@H]2[C@@H]2CC[C@H]3C[C@H](O)CC[C@]3(C)[C@H]21 [Example 130]
pH (pH of the salt solutions; [2]): 3.12 | Dissolved aminoester [1, 6]: 80 mg

CCN(CC)CC(=O)O[C@H]1C[C@]2(C)[C@@H](C(C)=O)CC[C@H]2[C@@H]2CC[C@H]3C[C@H](O)[C@@H](Br)C[C@]3(C)[C@H]21 [Example 208]
pH (pH of the salt solutions; [2]): 2.6 | Dissolved aminoester [1, 6]: 65 mg

CC(=O)[C@H]1CC[C@H]2[C@@H]3CC[C@H]4C[C@H](O)CC[C@]4(C)[C@H]3[C@@H](OC(=O)CNC34CC5CC(CC(C5)C3)C4)C[C@]12C [Example 146]
pH (pH of the salt solutions; [2]): 2.92 | Dissolved aminoester [1, 6]: 86 mg

CC(=O)C1C(C)CC2C3CCC4CC(O)CCC4(C)C3C(OC(=O)CN3CCC(C)CC3)CC21C (stereo not drawn) [Example 178]
pH (pH of the salt solutions; [2]): 3.6 | Dissolved aminoester [1, 4]: 100 mg

CC(=O)[C@H]1CC[C@H]2[C@@H]3CC[C@H]4C[C@H](O)CC[C@]4(C)[C@H]3[C@@H](OC(=O)CN(C)CC(C)(C)C)C[C@]12C [Example 188]
pH (pH of the salt solutions; [2]): 2.58 | Dissolved aminoester [1, 6]: 31 mg

CC(=O)[C@H]1CC[C@H]2[C@@H]3CC[C@H]4C[C@H](O)CC[C@]4(C)[C@H]3[C@@H](OC(=O)CN3CCCC(C)C3)C[C@]12C (stereo partly drawn) [Example 157]
pH (pH of the salt solutions; [2]): 3.59 | Dissolved aminoester [1, 7]: 95 mg

CC(=O)[C@H]1CC[C@H]2[C@@H]3CC[C@H]4C[C@H](O)CC[C@]4(C)[C@H]3[C@@H](OC(=O)CN3CCC(C)CC3)C[C@]12C [Example 158]
pH (pH of the salt solutions; [2]): 3.60 | Dissolved aminoester [1, 7]: 93.8 mg
